Data from patent US8093286B2, “Methods for treatment with bucindolol based on genetic targeting” (The Regents of the University of Colorado, a body corporate, priority 2004, dated 2012).
Entries after “also recorded” stand apart in the source; their conditions may differ.

Assays:
[1] = test system: heart failure patients; conditions: cited from earlier work
[2] = test system: failing human right ventricular trabeculae; test: contractile response of isolated right ventricular trabeculae from failing human hearts; conditions: for maximal isoproterenol-stimulated systolic tension: failing hearts
Description: (§1) Nonfailing hearts were obtained from local potential organ donors whose hearts were not transplanted because of physical or ABO blood type incompatibility. Failing hearts were from patients with end-stage heart failure due to ischemic or non-ischemic dilated cardiomyopathies who underwent cardiac transplantation. The demographic characteristics of the hearts are provided in Results. The contractile response of isolated, field stimulated, human trabeculae was assessed as previously described {1755; a-c}. Trabeculae of uniform size (1 to 2×6 to 8 mm) were mounted in 80 ml muscle bath chambers in Tyrode's solution at pH 7.45 bubbled with 95% O2-5% CO2 at 36^0. After equilibration, a tension of 75% of Lmax was applied to each individual trabeculum. Field-stimulation by a 5-ms pulse at 10% above threshold was then applied, and after equilibration full dose-response curves to isoproterenol, bucindolol or xamoterol were performed using the indicated concentrations and application of increasing doses every 5 minutes. In experiments in which forskolin was used to enhance signal transduction {e,f}, 10^−6 M of this adenylyl cyclase activator was applied to the tissue baths 15-20 minutes prior to the performance of dose-response curves, and allowed to achieve stability of tension response. Systolic tension at each dose was calculated as the stimulated tension in mN/mm^2 minus baseline tension. The maximum tension, concentration of isoproterenol that produced 50% of the maximum developed tension (EC50) and curve slope were computed by nonlinear repeated measures analysis of covariance. […] Statistical methods were employed as described in Examples 3 and 4.

[3] = test system: β1-Arg389 transgenic mice (ventricular expression of human β1AR); test: chronic β-blockade in transgenic mice, Western blots of ventricular signaling and Ca2+-handling proteins; format: in vivo, mouse; conditions: 0.5 mg/ml in drinking water for 6 months; ANOVA P<0.002
Description: (§2) Using the α-myosin heavy chain promoter, transgenic mice with targeted ventricular expression of the human β1AR (Arg389 or Gly389 forms) were utilized to ascertain allele-specific responses to chronic administration of the […] propranolol. […] The generation of these mice and their partial characterization has recently been reported in detail elsewhere (Perez et al, 2003). For the current studies, 3-month-old mice of both genotypes, as well as nontransgenic mice, were treated with propranolol (0.5 mg/ml) in their drinking water, or water without propranolol (control) continuously for 6 months. Hearts were then removed and ventricular protein extracts prepared. These were subjected to Western blotting to ascertain expression of the following proteins using methods previously described (Perez et al., 2003): Gαs, Gαi2, G-protein coupled receptor kinase-2 (GRK2), adenylyl cyclase type 5 (AC5), total phospholamban (T-PLN), phosphorylated phospholamban (P-PLN) and sarcoplasmic endoplasmic reticulum calcium ATPase-2A (SERCA). Treatment effect was assessed by comparing expression of the proteins of untreated and propranolol treated mice, within genotype, by ANOVA. The study was approved by the University of Cincinnati Animal Use and Care Committee.

[4] = test system: β1-Gly389 transgenic mice (ventricular expression of human β1AR); test: as above; format: in vivo, mouse; conditions: 0.5 mg/ml in drinking water for 6 months; P=0.67
Description: as §2

[5] = test system: nonfailing human right ventricular trabeculae; test: contractile response of isolated right ventricular trabeculae from nonfailing human hearts
Description: as §1

[6] = test system: norepinephrine; conditions: 3 months, MOXCON Trial; cited from earlier work
[7] = U.S. enrolled patients in MERIT-HF

Question: For `COCCc1ccc(OCC(O)CNC(C)C)cc1.COCCc1ccc(OCC(O)CNC(C)C)cc1.O=C(O)CCC(=O)O` (stereo not drawn) [metoprolol CR/XL, metoprolol succinate CR/XL], which “Mortality + HF Hospitalization hazard ratio vs placebo” value ([1]; MERIT-HF US Pts (n = 1071/3991)) is on record?
Answer: ~0.84; 200 Ev

Question: What about the “mortality plus heart failure hospitalization hazard ratio vs placebo” value ([1]; MERIT-HF entire cohort (UCL 0.80)) of the same compound?
Answer: 0.69

Question: And the mortality increase [1, 7]?
Answer: 5%

Question: What about the “mortality+HF hospitalization decrease” value [1, 7] of the same compound?
Answer: 16%

Question: With `COc1ccccc1OCCNCC(O)COc1cccc2[nH]c3ccccc3c12` (stereo not drawn) [carvedilol] as the compound, how does the “positive inotropic signal compared with bucindolol” value ([2]; failing heart, forskolin pretreated preparations) read?
Answer: more of a positive inotropic signal than bucindolol

Question: Which “inotropic effect on systolic force (dose-response curve slope)” value ([2]; β1AR Arg/Arg, forskolin pretreatment) does the source give for `O=C(NCCNCC(O)COc1ccc(O)cc1)N1CCOCC1` (stereo not drawn) [xamoterol] here?
Answer: increase in force

Question: What about the “inotropic effect on systolic force (dose-response curve slope)” value ([2]; β1AR Arg/Arg, forskolin pretreatment, listed as Xamoterol) of the same compound?
Answer: positive inotropic effect

Question: What about the “inotropic effect on systolic force (dose-response curve slope)” value ([2]; β1AR Arg/Arg, without forskolin) of the same compound?
Answer: increase in force; also recorded: positive inotropic effect

Question: What about the “inotropic effect on systolic force (dose-response curve slope)” value ([2]; β1AR Gly carriers, forskolin pretreatment) of the same compound?
Answer: increase in force

Question: And the “inotropic effect on systolic force (dose-response curve slope)” value ([2]; β1AR Gly carriers, forskolin pretreatment, listed as Xamoterol)?
Answer: positive inotropic effect

Question: What about the “inotropic effect on systolic force (dose-response curve slope)” value ([2]; β1AR Gly carriers, without forskolin) of the same compound?
Answer: negative inotropic effect

Question: Which “treatment effect on expression of cardiac signaling and Ca2+-handling proteins” value [3] does the source give for `CC(C)NCC(O)COc1cccc2ccccc12` (stereo not drawn) [propranolol] here?
Answer: overall treatment response

Question: And the “treatment effect on expression of cardiac signaling and Ca2+-handling proteins” value [4]?
Answer: no effect

Question: For `CC(C)NCC(O)c1ccc(O)c(O)c1` (stereo not drawn) [isoproterenol], which “maximal isoproterenol-stimulated systolic tension” value ([5]; β1-Arg389 homozygotes) is on record?
Answer: 13±2.5 mN/mm^2

Question: And the “maximal isoproterenol-stimulated systolic tension” value ([5]; β1-Gly389 carriers)?
Answer: 5.2±1.4 mN/mm^2

Question: And the “maximal isoproterenol-stimulated systolic tension” value ([2]; β1-Arg389 homozygotes)?
Answer: 9.4±1.9 mN/mm^2

Question: And the “maximal isoproterenol-stimulated systolic tension” value ([2]; β1-Gly389 carriers)?
Answer: 2.4±0.60 mN/mm^2

Question: Which “relative reduction in norepinephrine” value [6] does the source give for `COc1nc(C)nc(Cl)c1N=C1NCCN1` [moxonidine] here?
Answer: 24%
